Data: patent US8618162B2 (priority 2007, dated 2013)
Where two headings read alike, the source gives them in different places.

Key:
Anopheles gambiae = experiment: Live mosquito contact toxicity, WHO filter paper assay; type: in vivo; conditions: for Live Mosquito Contact Toxicity MC for 100% lethality at 24 hr: 1 hr exposure to treated filter paper
Ag ace-1S [1] = molecular target: T1, Ag ace-1S (Anopheles gambiae, UniProt Q869C3); experiment: biochemical
T1 construct: encoding the entire wild type AgAChE protein (ace1, 737 amino acids); made in house; host or cells: Drosophila S2 cells (stably transfected, pMT/V5-His vector), clarified cell lysate
T1 sequence (Q869C3 39-737): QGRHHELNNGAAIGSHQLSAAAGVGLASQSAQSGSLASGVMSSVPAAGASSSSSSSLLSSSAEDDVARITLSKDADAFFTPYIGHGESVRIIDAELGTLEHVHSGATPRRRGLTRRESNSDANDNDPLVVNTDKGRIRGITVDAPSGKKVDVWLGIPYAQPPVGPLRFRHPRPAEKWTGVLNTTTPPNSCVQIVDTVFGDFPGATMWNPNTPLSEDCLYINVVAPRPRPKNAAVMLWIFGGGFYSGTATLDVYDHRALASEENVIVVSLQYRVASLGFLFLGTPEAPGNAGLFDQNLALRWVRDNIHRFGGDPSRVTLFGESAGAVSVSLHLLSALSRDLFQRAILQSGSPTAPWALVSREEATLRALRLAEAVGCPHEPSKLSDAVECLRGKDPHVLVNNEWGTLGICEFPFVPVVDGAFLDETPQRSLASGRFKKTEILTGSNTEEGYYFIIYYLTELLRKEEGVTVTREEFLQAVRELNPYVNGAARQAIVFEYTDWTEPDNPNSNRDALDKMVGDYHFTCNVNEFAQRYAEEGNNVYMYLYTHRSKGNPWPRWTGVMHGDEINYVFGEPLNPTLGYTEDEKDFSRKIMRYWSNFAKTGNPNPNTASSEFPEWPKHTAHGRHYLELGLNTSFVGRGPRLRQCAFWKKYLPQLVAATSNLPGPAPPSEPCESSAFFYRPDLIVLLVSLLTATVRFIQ

Ag ace-1S [2] = experiment: biochemical; set-up: species or system Anopheles gambiae; conditions: selectivity, values in parenthesis
Ag hmg AChE = molecular target: T2, Ag hmg AChE (Anopheles gambiae, UniProt Q869C3); experiment: Ellman AChE inhibition assay, Anopheles gambiae homogenate (Ag hmg); type: biochemical; conditions: for IC50: pH 7.8, 10 min preincubation; for IC50 ratio (hAChE/Ag hmg): selectivity, values in parenthesis; for Human/Ag IC50 ratio (selectivity for AgAChE over hAChE): range over the two AgAChE sources (Ag hmg, Ag ace-1S)
T2 construct: To prepare the Ag homogenate (Ag hmg) 10 Anopheles gambiae mosquitoes were combined; from tissue; host or cells: whole Anopheles gambiae mosquitoes, crude homogenate supernatant
T2 sequence (Q869C3 39-737): as above

hAChE = molecular target: T3, hAChE (Homo sapiens, UniProt P22303); experiment: Ellman AChE inhibition assay, recombinant hAChE; type: biochemical
T3 construct: purchased Sigma C1682
T3 sequence (P22303 32-614): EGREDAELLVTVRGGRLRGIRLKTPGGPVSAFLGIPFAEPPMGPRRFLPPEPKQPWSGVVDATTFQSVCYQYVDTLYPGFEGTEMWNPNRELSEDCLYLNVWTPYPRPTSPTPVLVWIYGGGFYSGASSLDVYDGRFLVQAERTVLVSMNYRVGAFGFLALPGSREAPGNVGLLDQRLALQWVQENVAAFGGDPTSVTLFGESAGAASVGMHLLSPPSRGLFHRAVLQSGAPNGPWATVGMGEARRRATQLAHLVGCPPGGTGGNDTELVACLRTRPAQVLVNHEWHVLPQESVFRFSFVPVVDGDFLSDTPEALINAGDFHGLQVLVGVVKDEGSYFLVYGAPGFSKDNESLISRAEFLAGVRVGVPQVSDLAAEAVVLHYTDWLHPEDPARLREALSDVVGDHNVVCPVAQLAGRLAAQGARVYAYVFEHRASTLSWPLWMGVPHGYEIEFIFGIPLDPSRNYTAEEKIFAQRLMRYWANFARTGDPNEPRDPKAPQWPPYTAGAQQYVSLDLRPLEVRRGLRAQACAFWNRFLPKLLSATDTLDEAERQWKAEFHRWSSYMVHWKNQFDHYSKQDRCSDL

Md hmg AChE = molecular target: T4, Md hmg AChE (Musca domestica, UniProt Q7YWJ9)
T4 construct: Comparison of Ag homogenate and Md head; host or cells: housefly head homogenate
T4 sequence (Q7YWJ9 1-692): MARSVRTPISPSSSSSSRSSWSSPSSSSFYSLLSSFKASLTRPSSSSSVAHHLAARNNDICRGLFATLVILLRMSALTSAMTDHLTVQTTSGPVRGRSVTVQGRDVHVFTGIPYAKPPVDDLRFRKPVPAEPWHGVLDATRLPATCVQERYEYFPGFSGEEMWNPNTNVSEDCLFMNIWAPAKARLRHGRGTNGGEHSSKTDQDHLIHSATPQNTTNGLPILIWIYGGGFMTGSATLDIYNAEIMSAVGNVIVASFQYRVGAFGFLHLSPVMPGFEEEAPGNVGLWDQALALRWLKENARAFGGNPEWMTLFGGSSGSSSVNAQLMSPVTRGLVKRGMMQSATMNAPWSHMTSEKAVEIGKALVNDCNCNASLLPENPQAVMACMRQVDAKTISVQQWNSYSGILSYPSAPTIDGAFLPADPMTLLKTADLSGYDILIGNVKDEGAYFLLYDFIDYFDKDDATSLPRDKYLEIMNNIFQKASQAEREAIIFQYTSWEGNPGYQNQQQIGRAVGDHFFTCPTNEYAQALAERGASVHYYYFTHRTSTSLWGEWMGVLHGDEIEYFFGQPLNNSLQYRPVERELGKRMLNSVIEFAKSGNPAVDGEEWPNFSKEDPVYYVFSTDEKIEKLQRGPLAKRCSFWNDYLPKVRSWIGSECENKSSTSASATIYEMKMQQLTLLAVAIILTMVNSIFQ

[3] = recombinant Anopheles gambiae AChE, WT (susceptible) strain, read-out: Ag ace-1S IC50
[4] = WT Anopheles gambiae homogenate, read-out: Ag WT hmg IC50
[5] = pH 7.8, 10 min preincubation, read-out: hAChE recomb. IC50
[6] = Musca domestica head homogenate; data from Metcalf / Kolbezen; read-out: Md WT hmg IC50; cited from earlier work
[7] = Ag WT hmg IC50, WT Anopheles gambiae homogenate
[8] = read-out: Md WT hmg IC50; Musca domestica head homogenate; data from Metcalf / Kolbezen; cited from earlier work

Molecule	Live Mosquito Contact Toxicity MC for 100% lethality at 24 hr (Anopheles gambiae) [ug/cm^2]	IC50 ratio (hAChE/Ag ace-1S) (Ag ace-1S [2])	IC50 ratio (hAChE/Ag hmg) (Ag hmg AChE)	IC50 (Ag ace-1S [1]) [nM]	IC50 (Ag hmg AChE; [7]) [nM]	IC50 (hAChE) [nM]	also measured
2-isopropylphenyl-N-methylcarbamate [Compound 22b]	56	(11x)	(8.8x)				IC50 (Ag ace-1S [1]; [3]): 426 nM; IC50 (Ag hmg AChE; [4]): 507 nM; IC50 (hAChE; [5]): 4540 nM
CNC(=O)O/N=C/C(C)(C)SC [Aldicarb, reference compound]	0.55			10900			IC50 (Md hmg AChE; [6]): 84000 nM; IC50 (Ag hmg AChE; [4]): 4620 nM
CNC(=O)Oc1cccc2c1OC(C)(C)O2 [Bendiocarb, reference compound]	0.55	(1.9x)	(4.1x)	142			IC50 (Ag hmg AChE; [4]): 65 nM; IC50 (hAChE; [5]): 270 nM
CNC(=O)Oc1cccc2ccccc12 [Carbaryl, reference compound]				515			IC50 (Md hmg AChE; [6]): 900 nM; IC50 (Ag hmg AChE; [4]): 262 nM; IC50 (hAChE; [5]): 2840 nM
CNC(=O)Oc1cccc2c1OC(C)(C)C2 [Carbofuran, reference compound]				49			IC50 (Ag hmg AChE; [4]): 22 nM; IC50 (hAChE; [5]): 61 nM
CCCCN(CCCC)SN(C)C(=O)Oc1cccc2c1OC(C)(C)C2 [Carbosulfan, reference compound]				10800			IC50 (Ag hmg AChE; [4]): 4100 nM; IC50 (hAChE; [5]): 5920 nM
CCC(CC)CSc1ccccc1OC(=O)NC [Compound 1b, 2-(2-ethylbutylthio)phenyl-N-methylcarbamate]				2.9	3	3630	lethality at 24 h (Anopheles gambiae; at 11 ug/cm^2, 1 hr exposure): 27% at 11; Human/Ag IC50 ratio (selectivity for AgAChE over hAChE) (Ag hmg AChE): 1200 fold
CNC(=O)Oc1cccc([Si](C)(C)C)c1 [Compound 2a, N-methyl 3-(trimethylsilyl)phenyl carbamate]	5.6	(130x)	(95x)	4.1	5.6	532	IC50 (Md hmg AChE; [8]): 700 nM; difference in potency Ag hmg AChE vs Md hmg AChE (Ag hmg AChE; more potent at Ag hmg AChE): 100 fold
CCC(CC)COc1ccccc1OC(=O)NC [Compound 2b, 2-(2-ethylbutoxy)phenyl-N-methylcarbamate]				10	69	98800	lethality at 24 h (Anopheles gambiae; at 11 ug/cm^2, 1 hr exposure): 27%; lethality at 24 h, +PBO (Anopheles gambiae; at 11 ug/cm^2, +PBO): 53%; Human/Ag IC50 ratio (selectivity for AgAChE over hAChE) (Ag hmg AChE): 1,400-9.900 fold
CC[Si](C)(C)c1cccc(OC(=O)NC)c1 [Compound 3a, N-methyl 3-ethyldimethylsilylphenyl carbamate]	11	(130x)	(110x)	2.2	2.7	285	
CNC(=O)Oc1cccc(C(C)C)c1 [Compound 4a]				12	27		IC50 (Md hmg AChE; [8]): 340 nM
CCC(C)CSc1ccccc1OC(=O)NC (stereo not shown) [Compound 4b, 2-(2-methylbutylthio)phenyl-N-methylcarbamate]				27	30	3540	lethality at 24 h (Anopheles gambiae; at 11 ug/cm^2, 1 hr exposure): 70% at 11
CCc1cccc(OC(=O)NC)c1 [Compound 5a]	11	(6.4x)	(4.0) x	392	630	2500	IC50 (Md hmg AChE; [8]): 13000 nM
CNC(=O)Oc1cccc(-c2ccccc2)c1 [Compound 6a]	56	(3.2x)	(2.1x)	12100	18400	38900	
CNC(=O)Oc1cccc(Cl)c1 [Compound 7a]	56	(5.2x)	(3.3x)	16600	26000	86000	IC50 (Md hmg AChE; [8]): 50000 nM
CNC(=O)Oc1ccccc1SCC(C)(C)C [Compound 7b, 2-(neopentylthio)phenyl-N-methylcarbamate]				287	732	13900	lethality at 24 h (Anopheles gambiae; at 11 ug/cm^2, 1 hr exposure): 33% at 11
C=C(C)CSc1ccccc1OC(=O)NC [Compound 8b, 2-(2-methylallylthio)phenyl-N-methylcarbamate]	2.8			165	124	9550	
CNC(=O)Oc1ccccc1SCC1CCCC1 [Compound 11b, 2-(cyclopentylmethylthio)phenyl-N-methylcarbamate]				391	1070	6880	
CNC(=O)Oc1ccccc1OCC(C)C [Compound 13b, 2-isobutoxyphenyl-N-methylcarbamate]				650	2060	66900	lethality at 24 h (Anopheles gambiae; at 2.8 ug/cm^2, 1 hr exposure): 100% at 2.8
C=C(Cl)CSc1ccccc1OC(=O)NC [Compound 14b, 2-(2-chloroallylthio)phenyl-N-methylcarbamate]	11			264	114	3100	
C=C(Br)CSc1ccccc1OC(=O)NC [Compound 15b, 2-(2-bromoallylthio)phenyl-N-methylcarbamate]				173	248	1660	lethality at 24 h (Anopheles gambiae; at 56 ug/cm^2, 1 hr exposure): 93% lethal at 56
C=CCSc1ccccc1OC(=O)NC [Compound 16b, 2-(allylthio)phenyl-N-methylcarbamate]	5.6			36	156	1580	
C/C=C/CSc1ccccc1OC(=O)NC [Compound 17b, (E)-2-(but-2-enylthio)phenyl-N-methylcarbamate]				68	57	494	lethality at 24 h (Anopheles gambiae; at 5.6 ug/cm^2, 1 hr exposure): 93% lethal at 5.6
CNC(=O)Oc1ccccc1SCC=C(C)C [Compound 18b, 2-(3-methylbut-2-enylthio)phenyl-N-methylcarbamate]	56			411	1180	2700	
CNC(=O)Oc1ccccc1SCc1ccccc1 [Compound 19b, 2-(benzylthio)phenyl-N-methylcarbamate]				3840	6900	15700	
C=C(Br)COc1ccccc1OC(=O)NC [Compound 21b, 2-(2-bromoallyloxy)phenyl-N-methylcarbamate]	11			741	1070	31900	
CNC(=O)Oc1ccccc1C(C)(C)C [Compound 23b, 2-tert-butylphenyl methylcarbamate]	56	(1.9x)	(>1.3x)	51700	79000	> 100000	
CNC(=O)ON=C(C)SC [Methomyl, reference compound]	2.7	(0.36x)	(0.87x)	1760			IC50 (Ag hmg AChE; [4]): 716 nM; IC50 (hAChE; [5]): 626 nM
N-methyl-3-fluoro-5-trifluoromethylphenylcarbamate [Compound 12a]							lethality at 24 h (Anopheles gambiae; at 11 ug/cm^2, 1 hr exposure): None at 11; IC50 (Ag ace-1S [1]; [3]): 78500 nM; IC50 (Ag hmg AChE; [4]): > 100000 nM; IC50 (hAChE; [5]): > 100000 nM
